# In US7052910B2, “Skeletal cell model to screen anti-diabetic compounds” (Council of Scientific and Industrial Research, priority 2001, dated 2006):
# What was measured:
# IRS-1 = experiment: Tyrosine phosphorylation and expression of IRS-1 in C2C12 myotubes differentiated in serum free medium without (MF) or with chronic insulin (MFI); immunoblot; type: cell-based, mouse
# Experimental: (§1) FIG. 5 represents the effect of insulin stimulation on control and chronically insulin-differentiated cells: Cells were stimulated with 100 nm of insulin for 5 min. Cell lysates were run on sodium dodecyl sulphate-7%-polyacrylamide gel electrophoresis (SDS-7%-PAGE) and were immunoblotted with antiphosphotyrosine antibody (A) or anti-IRS-1 antibody (C) or anti-IR-β antibody (E). Cell lysates were immunoprecipitated with antibodies to IRS-1 (B) or IR-β (D) and immunoblotted (IB) with antiphosphotyrosine antibody; and FIG. 6 represents the effect of pioglitazone on tyrosine phosphorylation of IRS-1 and IR-β: Pioglitazone was added at 50 μM concentration during the last day of differentiation for 24 hr. Then, the cells were stimulated with 100 nm of insulin for 5 min. Cell lysate were immunoblotted (IB) with antiphosphotyrosine antibody (A) or α-IRS-1 (B). Cell lysates of the samples prepared the same immunoprecipitated (IP) with antibodies and immunoblotted (IB) with antiphosphotyrosine (C) or anti-IR-β (D) antibodies. C2C12 cells were grown in DMEM (Dulbecco's Modified Eagle Medium) containing 15% FCS (fetal calf serum). The cells were differentiated in serum free medium in the absence or chronic presence of 100 nm insulin. After three days the differentiation was complete. […]
# IR-β = experiment: Tyrosine phosphorylation and expression of IR-β in C2C12 myotubes differentiated in serum free medium without (MF) or with chronic insulin (MFI); immunoprecipitation and immunoblot; type: cell-based, mouse
# Experimental: as §1
substance,measurement,setting,value
insulin,ability of IRS-1 to undergo tyrosine phosphorylation in response to insulin,"IRS-1; C2C12 cells differentiated in chronic presence of 100 nm insulin (MFI), FIG. 5B",impaired
same,tyrosine phosphorylation of IRS-1 (Mr 160–170 kDa protein),"IRS-1; control (MF) C2C12 myotubes stimulated with 100 nm insulin for 5 min, FIG. 5A",insulin stimulated tyrosine phosphorylation
same,expression of IR-β,"IR-β; C2C12 cells differentiated in chronic presence of 100 nm insulin, FIG. 5E",reduced
same,tyrosine phosphorylation levels of IR,"IR-β; MFI (chronic 100 nm insulin) versus MF differentiated C2C12 cells, FIG. 5D",Severe reduction
